Experimental data from patent publication US20250228840A1, “METHODS OF TREATING SJÖGREN-LARSSEN SYNDROME” (Aldeyra Therapeutics, Inc., priority 2022, published 2025).
Entries after “also recorded” stand apart in the source; their conditions may differ. One block for each compound: values may come before it.

Tests used:
[1] = Exemplary PK results after oral administration of I-1 unit dosage form, daily dose 20-1200 mg (Table 2); type: in vivo; conditions: human subject
Description: In some embodiments, a unit dosage form described herein that comprises compound I-1, or a pharmaceutically acceptable salt thereof, upon oral administration to a human subject in a daily dose of 20 mg, 50 mg, 100 mg, 200 mg, 400 mg, 700 mg, or 1200 mg (or about such doses, as the case may be), provides a pharmacokinetic result shown in the table below:
In some embodiments, the human subject is a healthy human subject.
In some embodiments, the pharmacokinetic result described herein is obtained in a healthy human subject.

Oral absorption = type: in vivo
Description: (§1) Aldehydes are toxic molecules due to their propensity to covalently attach to proteins and other target molecules containing certain reactive chemical groups. Drugs that detoxify reactive aldehydes are under development for various inflammatory conditions characterized by the excessive formation of aldehydes. […] This clinical trial will investigate the safety and biochemical efficacy of systemic administration of Compound 1 in SLS.

[2] = system: cultured Chinese hamster cells lacking FALDH; test: Fatty aldehyde adducts, cytotoxicity and metabolism in cultured FALDH-deficient cells; type: cell-based
Description: as §1
There are no satisfactory animal models of SLS, thereby limiting preclinical testing to in vitro cellular studies. […] The detoxified ADX-102-fatty aldehyde by-products are degraded intracellularly. Thus, treatment of cultured FALDH-deficient cells with ADX-102 bypasses the lost catabolic function of FALDH on aldehydes in SLS and diminishes aldehyde load.

[3] = system: cultured Chinese hamster cells lacking FALDH; conditions: cultured FALDH-deficient cells; long-chain (C16-C18) fatty aldehydes; cited from earlier work
SLS subjects = conditions: applied topically as a cream; cited from earlier work
[4] = system: allergic conjunctivitis and dry eye; conditions: ophthalmic preparation, Phase-2; cited from earlier work

AUCinf ([1]; daily dose 20 mg (or about)): 50.0 ng·h/mL
Cmax ([1]; daily dose 20 mg (or about)): 26.4 ng/mL
AUCinf ([1]; daily dose 50 mg (or about)): 156 ng·h/mL
Cmax ([1]; daily dose 50 mg (or about)): 56.7 ng/mL
AUCinf ([1]; daily dose 100 mg (or about)): 433 ng·h/mL
Cmax ([1]; daily dose 100 mg (or about)): 140 ng/mL
t1/2 ([1]; daily dose 100 mg (or about)): ~3.52 h
AUCinf ([1]; daily dose 200 mg (or about)): 1140 ng·h/mL
Cmax ([1]; daily dose 200 mg (or about)): 459 ng/mL
t1/2 ([1]; daily dose 200 mg (or about)): ~6.04 h
AUCinf ([1]; daily dose 400 mg (or about)): 2730 ng·h/mL
Cmax ([1]; daily dose 400 mg (or about)): 869 ng/mL
t1/2 ([1]; daily dose 400 mg (or about)): ~6.15 h
AUCinf ([1]; daily dose 700 mg (or about)): 6710 ng·h/mL
Cmax ([1]; daily dose 700 mg (or about)): 2020 ng/mL
t1/2 ([1]; daily dose 700 mg (or about)): ~7.33 h
AUCinf ([1]; daily dose 1200 mg (or about)): 14500 ng·h/mL
Cmax ([1]; daily dose 1200 mg (or about)): 4220 ng/mL
t1/2 ([1]; daily dose 1200 mg (or about)): ~7.69 h
oral absorption (Oral absorption): well-absorbed orally
SMILES: CC(C)(O)c1nc2ccccc2cc1N [Compound I-1]

SMILES: CC(C)(O)c1nc2ccc(Cl)cc2cc1N [ADX-102, 2-[3-amino-6-chloro-quinolin-2-yl]-propan-2-ol]
fatty aldehyde cytotoxicity and apoptosis [2]: mitigate aldehyde cytotoxicity; also recorded: reverses fatty aldehyde cytotoxicity and apoptosis
metabolism of fatty aldehyde to fatty alcohol ([2]; C18:0, octadecanal, data not shown): prevent metabolism of fatty aldehydes to fatty alcohols; also recorded: blocks the metabolism of fatty aldehyde (C18:0, octadecanal) to fatty alcohol
effect on synthesis or degradation of fatty alcohol itself ([2]; data not shown): no effect
oral absorption (Oral absorption): poor absorption qualities
formation of fatty aldehyde covalent adducts with PE (NAPE) / cellular lipids [3]: block the formation of long-chain (C16-C18) fatty aldehyde adducts with cellular lipids; also recorded: prevents fatty aldehydes from forming covalent adducts with PE (NAPE)
ichthyosis (SLS subjects): improve ichthyosis
clinical activity in allergic conjunctivitis and dry eye [4]: beneficial activity
